From the NIST ThermoML archive (doi:10.1021/acs.jced.8b01200) come the findings set out here.

The structures appear in SMILES notation. Numbers after ± are expanded uncertainties.

Data set [1] can be described thus: Molar enthalpy of transition or fusion. The note with it: Crystal; DSC.
The conditions of data set [2]: Crystal; DSC.

With `CCCCCCCCCCCCCCCC(=O)OCC(COC(=O)CCCCCCCCCCCCCCC)OC(=O)CCCCCCCCCCCCCCC` [1,2,3-propanetriyl tri(hexadecanoate)], the “Molar enthalpy of transition or fusion” value in data set [1] stood at 37.9 ± 0.789 kcal/mol. For the same molecule, the Triple point temperature in data set [2] turned out to be 336.8 ± 1.4 K.

Turning to `CCCCCCCCCCCCCC(=O)OCC(COC(=O)CCCCCCCCCCCCC)OC(=O)CCCCCCCCCCCCC` [1,2,3-propanetriyl tri(tetradecanoate)], in data set [1], the “Molar enthalpy of transition or fusion” value turned out to be 34.5 ± 0.741 kcal/mol. Also, the Triple point temperature in data set [2] was 329.4 ± 1.4 K.

In the case of `Cc1ccc(C(C)C)c(O)c1` [3-methyl-6-isopropylphenol], the “Molar enthalpy of transition or fusion” value in data set [1] came out at 3.11 ± 0.502 kcal/mol. Also, in data set [2], the Triple point temperature is 321.9 ± 1.4 K.

For the molecule `CC(C)[C@@H]1CC[C@@H](C)C[C@H]1O` [L-menthol], the “Molar enthalpy of transition or fusion” value in data set [1] was 2.85 ± 0.454 kcal/mol. Further, the Triple point temperature in data set [2] is 314.4 ± 2.4 K.

For the molecule `CCCCCCCCCCCCCCCCCC(=O)OCC(COC(=O)CCCCCCCCCCCCCCCCC)OC(=O)CCCCCCCCCCCCCCCCC` [glycerol trioctadecanoate], the “Molar enthalpy of transition or fusion” value in data set [1] was found to be 44 ± 0.884 kcal/mol. In addition, the Triple point temperature in data set [2] is given as 343.8 ± 1.4 K.
